This note sets out measurements from ChEMBL document CHEMBL4303087, “Broad anti-coronaviral activity of FDA approved drugs against SARS-CoV-2 in vitro and SARS-CoV in vivo” (2020).

The subject of data set [1] is SARS-CoV-2. Description: microbe, parasite or virus in culture. The data set is classed as functional, organism-based, Chlorocebus sabaeus, Vero C1008.
The test system of data set [2] is SARS-CoV-2. The experiment in a line: microbe, parasite or virus in culture. The data set is classed as functional, organism-based, Chlorocebus sabaeus, Vero C1008. The source holds these as a separate data set.
The subject of a further data set is SARS-CoV. The experiment in a line: Reduction of SARS spike protein-mediated cell fusion using BlaM pseudovirus assay system in BSC1 cells. The data set is classed as functional, Chlorocebus aethiops, BSC-1.
The subject of the next data set is Vero C1008. As to conditions: chlorocebus sabaeus, vero c1008, 72 h.
Data set [3] in a line: in vitro. As to conditions: monkey, Vero E6 cells, Selectivity index.
Data set [4] can be described thus: in vitro. Conditions: monkey, Vero E6 cells, Selectivity index. This is another data set of the same source.
In data set [5] the test system is SARS-CoV-2. The experiment in a line: Reduction of viral mRNA (RdRp and N) in SARS-CoV-2 infected Vero E6 cells (at MOI 0.1) after 24 hrs. Conditions: Chlorocebus sabaeus; Vero C1008. The data set is classed as functional, organism-based.
Data set [6] deals with SARS-CoV-2. Description: Reduction of SARS-CoV-2 infection by time of addition assay, with 50uM hydroxychloroquine administered at -2hrs, 0 hrs and 2hrs post-infection. The data set is classed as functional, organism-based. Conditions: Chlorocebus sabaeus, Vero C1008.
Setting [7] is: Severe acute respiratory syndrome coronavirus 2, Vero C1008, 72 h.

Several values for one entry are separate records, joined by “and”; a condition that tells them apart may be missing. Equal entries are not always repeated. Structures can show the parent of a compound that is named as a salt. Activity calls are given as the source filed them. No cut-off for these calls is given here. Where only a bound is given, the exact number is not on record here.

Take `CN(C)CCCN1c2ccccc2Sc2ccc(Cl)cc21.Cl` [CHLORPROMAZINE HYDROCHLORIDE]: the IC50 (usually the point on the concentration scale where inhibition reaches its midpoint) with SARS-CoV-2 [1] (setting [7]) turned out to be 3.14 µM; in the data set with SARS-CoV-2 [2] (setting [7]) it was 4.03 µM. The Inhibition (as a rule, the relative decrease from the control value, in per cent) with SARS-CoV is reported as above 90%. This compound also displayed a CC50 in the data set with Vero C1008 of 11.9 µM.

With `CC(CN1c2ccccc2Sc2ccccc21)N(C)C` (stereo not drawn) [PROMETHAZINE HYDROCHLORIDE], the concentration for half-maximal inhibition (IC50) came out at 9.21 µM with SARS-CoV-2 [1] (setting [7]) and 10.4 µM with SARS-CoV-2 [2] (setting [7]). The CC50 in the data set on Vero C1008 was above 42.6 µM. Also, the selectivity ratio in the data set “in vitro [3]” was above 4.62; in the data set “in vitro [4]”, above 4.08.

Regarding `Cc1ccc(NC(=O)c2ccc(CN3CCN(C)CC3)cc2)cc1Nc1nccc(-c2cccnc2)n1` [IMATINIB MESYLATE], the CC50 with Vero C1008 is above 30.9 µM.

Regarding `OC(c1cc(C(F)(F)F)nc2c(C(F)(F)F)cccc12)C1CCCCN1` (stereo not drawn) [MEFLOQUINE HYDROCHLORIDE], the IC50 in the data set on SARS-CoV-2 [1] (setting [7]) came out at 7.11 µM; with SARS-CoV-2 [2] (setting [7]), 8.06 µM. The compound further yielded a CC50 in the data set with Vero C1008 of 18.5 µM. In addition, the selectivity ratio is 2.61 in “in vitro [3]” and 2.3 in the data set “in vitro [4]”.

`CC[C@H]1CN2CCc3cc(OC)c(OC)cc3[C@@H]2C[C@@H]1C[C@H]1NCCc2cc(OC)c(OC)cc21` [EMETINE DIHYDROCHLORIDE HYDRATE] gave a CC50 in the data set with Vero C1008 below 0.39 µM.

As to `O=C1NCN(c2ccccc2)C12CCN(CCCC(c1ccc(F)cc1)c1ccc(F)cc1)CC2`, the IC50 in the data set on SARS-CoV-2 [1] (setting [7]) stood at 3.16 µM; in the data set on SARS-CoV-2 [2] (setting [7]), 5.32 µM. In addition, the CC50 in the data set on Vero C1008 was 30.3 µM. The values for the selectivity ratio in “in vitro [3]” and in the data set “in vitro [4]” were 9.61 and 5.71, respectively.

Take `CCN(CCO)CCCC(C)Nc1ccnc2cc(Cl)ccc12` (stereo not drawn) [HYDROXYCHLOROQUINE SULFATE]: the IC50 in the data set on SARS-CoV-2 [1] (setting [7]) worked out at 9.21 µM; with SARS-CoV-2 [2] (setting [7]) it was 11.2 µM. Also, the result with SARS-CoV-2 [5], in the data set on SARS-CoV-2 [6] (time 0.0 hr), in the data set on SARS-CoV-2 [6] (time 2.0 hr) and in the data set with SARS-CoV-2 [6] (time -2.0 hr) was Active. In the data set with Vero C1008, the CC50 was above 50 µM. The selectivity ratio was above 5.43 in “in vitro [3]” and above 4.48 in “in vitro [4]”.

In the data set on Vero C1008, `CC/C(=C(\c1ccccc1)c1ccc(OCCN(C)C)cc1)c1ccccc1` [TAMOXIFEN CITRATE] registered a CC50 of 38 µM.

With `CN(C)CCOc1ccc(/C(=C(/CCCl)c2ccccc2)c2ccccc2)cc1` [TOREMIFENE CITRATE], the figures for the half-inhibitory concentration (IC50) with SARS-CoV-2 [1] (setting [7]) and in the data set with SARS-CoV-2 [2] (setting [7]) were 4.77 µM and 11.3 µM, respectively. Moreover, the CC50 with Vero C1008 was determined as 20.5 µM. Besides, the figures for the selectivity ratio in “in vitro [3]” and in “in vitro [4]” were 4.3 and 1.81, respectively.

Regarding `CCN(CC)Cc1cc(Nc2ccnc3cc(Cl)ccc23)ccc1O` [AMODIAQUINE HYDROCHLORIDE], the IC50 in the data set with SARS-CoV-2 [1] (setting [7]) is 2.59 µM; in the data set on SARS-CoV-2 [1] (vero c1008) it was 2.36 µM; in the data set on SARS-CoV-2 [2] (setting [7]), 4.94 µM; in the data set with SARS-CoV-2 [2] (vero c1008) it was 5.64 µM. Also, the CC50 with Vero C1008 (72 h) was 34.4 µM and > 38.6 µM. For the same compound, the selectivity ratio in the data set “in vitro [3]” stood at 13.3; in the data set “in vitro [4]”, 6.97.

As for `CCN(CC)CCOc1ccc(C(O)(Cc2ccc(Cl)cc2)c2ccc(C)cc2)cc1` (stereo not drawn) [TRIPARANOL], the figures for the IC50 with SARS-CoV-2 [1] (setting [7]) and in the data set with SARS-CoV-2 [2] (setting [7]) were 4.68 µM and 6.41 µM, respectively. The same compound showed a CC50 in the data set on Vero C1008 of 21.2 µM. In addition, the results for the selectivity ratio in the data set “in vitro [3]” and in the data set “in vitro [4]” were 4.53 and 3.31, respectively.

As for `CCN(CC)CCCC(C)Nc1ccnc2cc(Cl)ccc12.O=P(O)(O)O.O=P(O)(O)O` (stereo not drawn) [CHLOROQUINE PHOSPHATE], the figures for the IC50 with SARS-CoV-2 [1] (setting [7]) and in the data set with SARS-CoV-2 [2] (setting [7]) were 42 µM and 46.8 µM, respectively. The result with SARS-CoV-2 [5] was Active. This compound also returned an Inhibition in the data set on SARS-CoV above 90%.

Take `CCSc1ccc2c(c1)N(CCCN1CCN(C)CC1)c1ccccc1S2` [THIETHYLPERAZINE MALEATE]: the half-maximal inhibitory concentration (IC50) with SARS-CoV-2 [1] (setting [7]) was determined as 7.09 µM; in the data set with SARS-CoV-2 [2] (setting [7]) it was 8.02 µM. The compound further yielded a CC50 in the data set on Vero C1008 of 18.4 µM. The selectivity ratio in the data set “in vitro [3]” came out at 2.59; in “in vitro [4]”, 2.29.

In the case of `CC(C)N1CCN(c2ccc(OCC3COC(Cn4cncn4)(c4ccc(Cl)cc4Cl)O3)cc2)CC1` (stereo not drawn) [TERCONAZOLE], the IC50 was 11.9 µM with SARS-CoV-2 [1] (setting [7]) and 16.1 µM with SARS-CoV-2 [2] (setting [7]). In addition, in the data set on Vero C1008, the CC50 worked out at 41.5 µM. The selectivity ratio in “in vitro [3]” was 3.48; in the data set “in vitro [4]”, 2.57.

`Nc1ccn([C@@H]2O[C@H](CO)[C@@H](O)C2(F)F)c(=O)n1` [GEMCITABINE HYDROCHLORIDE]: the CC50 in the data set with Vero C1008 turned out to be 23.2 µM.
